From PMC11874195, “Structural requirements of KAI2 ligands for activation of signal transduction” (Proceedings of the National Academy of Sciences of the …, 2025)

Assays:
KAI2 [1] = biological target: T1, KAI2 (Arabidopsis thaliana, UniProt Q9SZU7); assay: biochemical; set-up: Competitive inhibition of dYLG (0.5 uM) hydrolysis by purified recombinant KAI2, fluorescence read-out; settings: 0.5 uM dYLG substrate, 10 min
T1 sequence (Q9SZU7 1-270): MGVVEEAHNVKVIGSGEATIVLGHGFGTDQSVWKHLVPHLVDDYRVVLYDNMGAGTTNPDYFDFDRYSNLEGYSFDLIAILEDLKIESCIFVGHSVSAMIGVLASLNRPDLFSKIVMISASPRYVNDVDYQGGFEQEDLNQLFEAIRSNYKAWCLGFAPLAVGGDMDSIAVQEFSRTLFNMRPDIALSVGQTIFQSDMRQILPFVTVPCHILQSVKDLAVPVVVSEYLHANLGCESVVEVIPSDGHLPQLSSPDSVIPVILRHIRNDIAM
Method: The purified KAI2 (1 µg) was incubated with dYLG (0.5 µM) in the absence or presence of dMGer analogs for 10 min. Fluorescence intensity was measured using the Varioskan LUX plate reader (Thermo Fisher Scientific), with excitation and detection wavelengths of 480 and 520 nm, respectively. The IC50 values were calculated using the Enzyme Kinetics module of the SigmaPlot 14 program. Additional detailed methods are described in SI Appendix, Materials and Methods. To produce KAI2 protein, KAI2 cDNA was cloned into the pCold II vector, and KAI2 protein was expressed and purified as previously described(5). Briefly, the plasmid was transformed into BL21, the resulting transformant cells were precultured overnight in 2.5 mL LB medium and then cells were grown in 200 mL TB medium at 35 °C to an OD600 ~0.6. Protein expression was induced by IPTG addition, and inductions were conducted at 16 °C for 20 h. Cells were harvested and then suspended in the protein extraction buffer (50 mM Tris-HCl pH 8.0, BugBuster protein extraction reagent, and 20U of Benzonase, and the constituent proteins were purified by affinity column chromatography. The purified KAI2 (1 µg) was incubated with dYLG (0.5 µM) in the absence or presence of dMGer analogs for 10 min. We first conducted competitive inhibition assays to determine whether the carba-dMGers could bind to the ligand binding pocket of KAI2. In these assays, a profluorescent probe, desmethyl-Yoshimulactone green (dYLG), was used as a substrate, and the KAI2 binding activity was assessed by the inhibitor concentrations necessary to halve the response (IC50) for fluorophore formation. […] Differential scanning fluorimetry (DSF) assays were also performed to evaluate the effect of the dMGer analogs on KAI2 destabilization. In the DSF assay, ligand–protein interactions are monitored by changes in the melting temperature (Tm); effective agonists, such as GR24^ent^-5DS and dGR24^ent^-5DS, lower the Tm value, that is, thermally destabilize the KAI2 protein ([15], [35]).

KAI2 [2] = biological target: T1, KAI2; assay: competitive dYLG hydrolysis assay with purified KAI2; also DSF (Tm […] to […] °C) and HPLC hydrolysis (K1/[…] =[…]); format: biochemical
KAI2 [3] = biological target: T1, KAI2; assay: X-ray crystal structure at […] Å (soak); also dYLG competition IC50 and DSF; format: biochemical
KAI2 [4] = biological target: T1, KAI2; assay: competitive dYLG hydrolysis assay with purified KAI2; also DSF and cleavage kinetics (K1/[…] =[…]); format: biochemical

| Structure (SMILES) | IC50 (KAI2 [1]) [µM] | further results |
| --- | --- | --- |
| O=C1CC(CCc2ccccc2Br)O1 (stereo not shown) [2Br-PEO, 4-(2-bromophenethyl)oxetan-2-one] | 0.22 | – |
| O=C1C=C[C@H](Oc2ccc(-c3ccccc3)cc2[N+](=O)[O-])O1 [(+)-dMGer] | – | IC50 (KAI2 [2]): 0.16 µM |
| O=C1C=C[C@@H](Oc2ccc(-c3ccccc3)cc2[N+](=O)[O-])O1 [(−)-dMGer] | 3.6 | – |
| O=C1C=C[C@@H](Oc2ccc(-c3ccccc3)cc2[N+](=O)[O-])C1 [(−)-1′-carba-dMGer] | 152 | – |
| O=C1C=C[C@H](Cc2ccc(-c3ccccc3)cc2[N+](=O)[O-])O1 [(+)-6′-carba-dMGer] | – | IC50 (KAI2 [3]): 2.5 µM |
| O=C1C=C[C@H](Oc2ccc(-c3ccccc3)cc2[N+](=O)[O-])C1 [(+)-1′-carba-dMGer] | – | IC50 (KAI2 [4]): 78 µM |
| O=C1C=C[C@@H](Cc2ccc(-c3ccccc3)cc2[N+](=O)[O-])O1 [(−)-6′-carba-dMGer] | 11 | – |
